Measured values taken from patent US11660324B2, “Copper complexes for treatment of neurodegenerative disorders” (ALS Therapy Development Institute, priority 2019, dated 2023).

How the values were obtained:
[1] = Pharmacokinetics of CuPTSM compared to CuATSM (plasma and spinal cord) after single oral bolus; assay type: in vivo; conditions: single oral bolus 30 mg/kg, SOD1^G93A mice
Protocol: The SOD1^G93A transgenic mouse model of ALS has been the most widely used animal model since the 1990s. The mouse was genetically engineered to overexpress a mutant form of the human Cu/Zn superoxide dismutase 1 (SOD1) gene harboring an ALS-associated glycine to alanine mutation at amino acid position 93 (G93A). Currently, the clinical strategy for the treatment of ALS with CuATSM is to escalate human dosing until ALS patients show plasma levels equivalent to those seen in mice given 30 mg/kg/day.
To compare the effects of CuPTSM to CuATSM in vivo, a single bolus of 30 mg/kg CuPTSM or 30 mg/kg CuATSM in an oral suspension of 0.5% methylcellulose/0.4% TWEEN-80/0.9% normal saline was administered to SOD1^G93A mice. Absorption half-life, elimination half-life, and Cmax measurements were taken from both plasma and spinal cord samples to measure drug exposure of CuPTSM or CuATSM for up to 6 hr after administration of drug.
Similar measurements were recorded for concentrations of CuPTSM and CuATSM in the spinal cord. […] As with the plasma concentrations, the spinal cord concentrations of CuATSM remained constant, even 6 hr after administration (FIG. 2B).

mice = assay: Tolerability in mice (previous studies); assay type: in vivo; conditions: 30 mg/kg
[2] = Pharmacokinetic simulation of repeated dosing, linear kinetics assumed; design: species or system mice; conditions: simulation from single-dose PK parameters
Protocol: FIG. 3A is a simulation using PK parameters derived from the experiment of FIG. 1A and FIG. 1B, assuming linear pharmacokinetics. Plasma concentrations (ng/mL) in mice receiving 6 mg/kg CuPTSM, 30 mg/kg CuATSM, or 100 mg/kg CuATSM are depicted over time (hours). FIG. 3B is a simulation using PK parameters derived from the experiment of FIG. 1A and FIG. 1B, assuming linear pharmacokinetics. Spinal cord concentrations (ng/mL) in mice receiving 6 mg/kg CuPTSM, 30 mg/kg CuATSM, or 100 mg/kg CuATSM are depicted over time (hours).
Using the data and parameters derived from the above experiments using a single bolus of 6 mg/kg CuPTSM, 30 mg/kg CuATSM, or 100 mg/kg CuATSM, plasma and spinal cord concentrations were recorded on a plot over time (hours) to illustrate pharmacokinetic simulations over time. Linear kinetics were assumed. […] Similar results were obtained when concentrations were measured in spinal cord samples (FIG. 3B).

SOD1^G93A mice [3] = assay: Onset of paresis by neurological scoring; assay type: in vivo
Protocol: (§1) To test the efficacy of CuPTSM compared to CuATSM, mice were tested for delays in paresis and overall lifespan. Mice were given 6 mg/kg CuPTSM (n=32), 30 mg/kg CuATSM (n=32), and 100 mg/kg CuATSM (n=32) once a day to assess disease progression, and identify drug-induced changes in SOD1^G93A mice compared to their respective vehicle-only control mice. Neurological scoring to test the onset of paresis for each mouse was performed throughout the study according to the protocol as disclosed in Hatzipetros et al. (2015, J. Visualized Experiments. doi:10.3791/53257), incorporated herein by reference in its entirety. Briefly, mice were scored on a scale of NS 0 (pre-symptomatic) to NS 4 (humane end-point) based on a combination of a tail suspension test, a walking test, and a “righting reflex” test.
(§2) To compare the effects of CuPTSM administered at a much lower dose than CuATSM, mice were administered 6 mg/kg […] and survival and onset of paresis were measured as before.

SOD1^G93A mice [4] = assay: Survival / lifespan; assay type: in vivo
Protocol: as §1
Survival for each cohort was also tracked throughout the study.
as §2

male SOD1^G93A mice = assay: Compound muscle action potential (CMAP), sciatic nerve / tibialis anterior; assay type: in vivo
Protocol: Compound muscle action potential (CMAP) was measured in mice given CuPTSM, CuATSM, or vehicle. CMAP is an electrophysiological technique that assess functional integrity of motor axons. The sciatic nerve is stimulated using implanted microelectrodes proving small electrical currents, and the response is measured in the innervated tibialis anterior (TA) muscle using an implanted recording electrode. It is known that the CMAP signal is decreased in the case of neuromuscular diseases, like in ALS patients, and recapitulated in the SOD1^G93A mouse model due to motor unit loss. In male SOD1^G93A mice, it has been shown that CMAP changes may happen as early as age day 50 and invariably worse after. In the present study, mice were treated once a day for 14 days with 2, 6, or 12 mg/kg CuPTSM; 10 or 30 mg/kg CuATSM; or vehicle (control). A total of 9 male mice were tested for each condition.
Prior to drug administration and assignment of mice to a cohort, CMAP was recorded for each mouse to establish a baseline measurement. Mice were then randomized into each treatment cohort, and administered the respective compounds and dosages of the cohort via oral gavage daily for two weeks. CMAP data was recorded at the end of the two weeks, and compared to the baseline measurements to calculate percent of baseline to illustrate the efficacy of CuPTSM and CuATSM compared to just vehicle.

Compound | absorption half-life ([1]; plasma) [h] | elimination half-life ([1]; plasma) [h] | plasma Cmax ([1]; plasma) [ng/mL] | Cmax ([1]; spinal cord) [ng/mL] | absorption half-life ([1]; spinal cord) [h] | elimination half-life ([1]; spinal cord) [h] | tolerability in mice (mice) | onset of paresis compared to control (SOD1^G93A mice [3]; 6 mg/kg once a day) | survival compared to control (SOD1^G93A mice [4]; 6 mg/kg once a day) | also measured
CN=C([S-])N/N=C(C)/C(C)=N/NC([S-])=NC.[Cu+2] [CuATSM] | 0.24 | 13.7 | 198 | 2 | 0.65 | 13.8 | well-tolerated | no significant improvement in onset of paresis | no significant difference in survival | simulated plasma concentration before the next dose ([2]; 30 mg/kg): did not return to 0 ng/mL prior the next dose; simulated plasma concentration before the next dose ([2]; 100 mg/kg): did not return to 0 ng/mL prior the next dose; onset of paresis compared to control (SOD1^G93A mice [3]; 30 mg/kg once a day): delaying onset over the control; onset of paresis compared to control (SOD1^G93A mice [3]; 100 mg/kg once a day): delaying onset over the control; survival compared to control (SOD1^G93A mice [4]; 30 mg/kg once a day): increase in survival over the control counterparts; survival compared to control (SOD1^G93A mice [4]; 100 mg/kg once a day): increase in survival over the control counterparts; CMAP change from baseline compared to vehicle (male SOD1^G93A mice; 10 mg/kg oral gavage once a day for 14 days): no significant difference in CMAP measurements; CMAP change from baseline compared to vehicle (male SOD1^G93A mice; 30 mg/kg oral gavage once a day for 14 days): no significant difference in CMAP measurements
CN=C([S-])N/N=C/C(C)=N/NC([S-])=NC.[Cu+2] [CuPTSM, copper PTSM] | 0.54 | 2.44 | 1565 | 7.27 | 1.0 | 1.9 | toxic to mice | delaying onset over the control | increase in survival over the control counterparts | simulated plasma concentration before the next dose ([2]; 6 mg/kg): plasma levels returned to 0 ng/mL prior to the next dose; delay of onset of paresis compared to CuATSM 30 and 100 mg/kg groups (each over its respective control) (SOD1^G93A mice [3]; 6 mg/kg once a day): significantly delayed onset of paresis over CuATSM; survival compared to CuATSM 30 and 100 mg/kg groups (SOD1^G93A mice [4]; 6 mg/kg once a day): markedly improved survival; CMAP change from baseline compared to vehicle (male SOD1^G93A mice; 2 mg/kg oral gavage once a day for 14 days): significantly greater change from baseline; CMAP change from baseline compared to vehicle (male SOD1^G93A mice; 6 mg/kg oral gavage once a day for 14 days): significantly greater change from baseline; CMAP change from baseline compared to vehicle (male SOD1^G93A mice; 12 mg/kg oral gavage once a day for 14 days): significantly greater change from baseline
